8 cell lines from the supplement of paper PMC10307832 can be followed below.

Assay in all cases: relative viability (nuclei count vs DMSO), 5 days (fraction); higher = more cells survive
Compound in test [1]: CCn1c(-c2nonc2N)nc2c(C#CC(C)(C)O)ncc(OC[C@H]3CCCNC3)c21 + Cc1cc(Nc2cc(N3CCN(C)CC3)nc(Sc3ccc(NC(=O)C4CC4)cc3)n2)n[nH]1 [Tozasertib] (partner 0.1 µM)
The method, boiled down:
(§1)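 Lung cancer cell lines in 1536-well plates got either a single drug or a fixed anchor-drug dose together with five library-drug doses (not always all listed) in √10 steps, by pin tool, on the day after seeding. Nuclei were counted after 5 days, and relative viability is the treated-to-vehicle ratio of nuclei counts. Values are medians of duplicate plates.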

Compound in test [2]: CCn1c(-c2nonc2N)nc2c(C#CC(C)(C)O)ncc(OC[C@H]3CCCNC3)c21 + O=C(c1cc(Cc2n[nH]c(=O)c3ccccc23)ccc1F)N1CCN(C(=O)C2CC2)CC1 [Olaparib] (partner 8 µM)
In outline:
as §1

Compound in the test “BAM7 + Pictilisib”: CCOC1=CC=CC=C1N=NC2=C(NN(C2=O)C3=NC(=CS3)C4=CC=CC=C4)C [BAM7] + CS(=O)(=O)N1CCN(Cc2cc3nc(-c4cccc5[nH]ncc45)nc(N4CCOCC4)c3s2)CC1 [Pictilisib] (partner 1 µM)
The method, boiled down: as §1

Compound in the test “BAM7 + Foretinib”: CCOC1=CC=CC=C1N=NC2=C(NN(C2=O)C3=NC(=CS3)C4=CC=CC=C4)C [BAM7] + COc1cc2c(Oc3ccc(NC(=O)C4(C(=O)Nc5ccc(F)cc5)CC4)cc3F)ccnc2cc1OCCCN1CCOCC1 [Foretinib] (partner 0.25 µM)
The method, boiled down:
as §1

As for NCI-H460, the relative viability in test [1] (first compound 0.01 µM) came to 0.533; in test [1] (first compound 0.03162 µM), 0.542; in test [1] (first compound 0.1 µM) it was 0.447; in test [1] (first compound 0.3162 µM), 0.461; in test [1] (first compound 1 µM) it was 0.532; in test [2] (first compound 0.01 µM) it was 0.363. Moreover, the relative viability in test [2] (first compound 0.03162 µM) came out at 0.411; in test [2] (first compound 0.1 µM) it was 0.474; in test [2] (first compound 0.3162 µM) it was 0.403; in test [2] (first compound 1 µM) it was 0.495; in the test with BAM7 + Pictilisib (first compound 0.5 µM) it was 0.439; in the test with BAM7 + Pictilisib (first compound 5 µM), 0.485. In addition, the relative viability with BAM7 + Pictilisib (first compound 15.81 µM) was determined as 0.411; with BAM7 + Pictilisib (first compound 50 µM), 0.381; with BAM7 + Foretinib (first compound 0.5 µM), 0.926; with BAM7 + Foretinib (first compound 5 µM), 0.982; with BAM7 + Foretinib (first compound 15.81 µM) it was 0.878; with BAM7 + Foretinib (first compound 50 µM), 0.969.

As for NCI-H1666, the relative viability in test [1] (first compound 0.01 µM) worked out at 0.625; in test [1] (first compound 0.03162 µM) it was 0.691; in test [1] (first compound 0.1 µM), 0.644; in test [1] (first compound 0.3162 µM) it was 0.578; in test [1] (first compound 1 µM), 0.567; in test [2] (first compound 0.01 µM) it was 0.793. The relative viability in test [2] (first compound 0.03162 µM) amounted to 0.722; in test [2] (first compound 0.1 µM) it was 0.752; in test [2] (first compound 0.3162 µM) it was 0.769; in test [2] (first compound 1 µM) it was 0.778; with BAM7 + Pictilisib (first compound 0.5 µM) it was 0.404; with BAM7 + Pictilisib (first compound 5 µM), 0.617. Besides, the relative viability with BAM7 + Pictilisib (first compound 15.81 µM) amounted to 0.352; in the test with BAM7 + Pictilisib (first compound 50 µM) it was 0.587; with BAM7 + Foretinib (first compound 0.5 µM) it was 0.945; with BAM7 + Foretinib (first compound 5 µM), 1.1; with BAM7 + Foretinib (first compound 15.81 µM) it was 0.996; in the test with BAM7 + Foretinib (first compound 50 µM), 1.06.

Turning to NCI-H1651, the relative viability turned out to be 0.633 in test [1] (first compound 0.01 µM); 0.624 in test [1] (first compound 0.03162 µM); 0.794 in test [1] (first compound 0.1 µM); 0.762 in test [1] (first compound 0.3162 µM); 0.805 in test [1] (first compound 1 µM); 0.194 in test [2] (first compound 0.01 µM). In addition, the relative viability in test [2] (first compound 0.03162 µM) was 0.189; in test [2] (first compound 0.1 µM), 0.197; in test [2] (first compound 0.3162 µM), 0.185; in test [2] (first compound 1 µM) it was 0.215; in the test with BAM7 + Pictilisib (first compound 0.5 µM), 0.497; with BAM7 + Pictilisib (first compound 5 µM), 0.64. Moreover, the relative viability came to 0.7 in the test with BAM7 + Pictilisib (first compound 15.81 µM); 0.541 with BAM7 + Pictilisib (first compound 50 µM); 0.893 in the test with BAM7 + Foretinib (first compound 0.5 µM); 0.837 in the test with BAM7 + Foretinib (first compound 5 µM); 0.686 with BAM7 + Foretinib (first compound 15.81 µM); 0.829 with BAM7 + Foretinib (first compound 50 µM).

For NCI-H1755, the relative viability stood at 0.617 in test [1] (first compound 0.01 µM); 0.498 in test [1] (first compound 0.03162 µM); 0.572 in test [1] (first compound 0.1 µM); 0.55 in test [1] (first compound 0.3162 µM); 0.61 in test [1] (first compound 1 µM); 0.969 in test [2] (first compound 0.01 µM). For the same cell line, the relative viability was determined as 0.891 in test [2] (first compound 0.03162 µM); 0.873 in test [2] (first compound 0.1 µM); 0.847 in test [2] (first compound 0.3162 µM); 0.917 in test [2] (first compound 1 µM); 0.454 with BAM7 + Pictilisib (first compound 0.5 µM); 0.409 with BAM7 + Pictilisib (first compound 5 µM). For the same cell line, the relative viability with BAM7 + Pictilisib (first compound 15.81 µM) is 0.366; with BAM7 + Pictilisib (first compound 50 µM), 0.415; in the test with BAM7 + Foretinib (first compound 0.5 µM) it was 0.951; with BAM7 + Foretinib (first compound 5 µM), 0.941; in the test with BAM7 + Foretinib (first compound 15.81 µM), 0.961; with BAM7 + Foretinib (first compound 50 µM), 0.95.

For the cell line NCI-H661, the relative viability in test [1] (first compound 0.01 µM) turned out to be 0.362; in test [1] (first compound 0.03162 µM), 0.343; in test [1] (first compound 0.1 µM), 0.354; in test [1] (first compound 0.3162 µM) it was 0.364; in test [1] (first compound 1 µM), 0.382; in test [2] (first compound 0.01 µM) it was 0.713. For the same cell line, the relative viability turned out to be 0.755 in test [2] (first compound 0.03162 µM); 0.836 in test [2] (first compound 0.1 µM); 0.771 in test [2] (first compound 0.3162 µM); 0.758 in test [2] (first compound 1 µM); 0.406 with BAM7 + Pictilisib (first compound 0.5 µM); 0.426 with BAM7 + Pictilisib (first compound 5 µM). Moreover, the relative viability in the test with BAM7 + Pictilisib (first compound 15.81 µM) was found to be 0.452; in the test with BAM7 + Pictilisib (first compound 50 µM), 0.423; with BAM7 + Foretinib (first compound 0.5 µM), 1.02; with BAM7 + Foretinib (first compound 5 µM), 1.08; in the test with BAM7 + Foretinib (first compound 15.81 µM), 0.964; with BAM7 + Foretinib (first compound 50 µM) it was 1.11.

Take HARA: the relative viability was 0.13 in test [1] (first compound 0.01 µM); 0.106 in test [1] (first compound 0.03162 µM); 0.143 in test [1] (first compound 0.1 µM); 0.0993 in test [1] (first compound 0.3162 µM); 0.109 in test [1] (first compound 1 µM); 0.909 in test [2] (first compound 0.01 µM). Also, the relative viability in test [2] (first compound 0.03162 µM) was found to be 0.903; in test [2] (first compound 0.1 µM), 0.808; in test [2] (first compound 0.3162 µM) it was 0.687; in test [2] (first compound 1 µM), 0.763; in the test with BAM7 + Pictilisib (first compound 0.5 µM), 0.327; with BAM7 + Pictilisib (first compound 5 µM), 0.267. Also, the relative viability with BAM7 + Pictilisib (first compound 15.81 µM) turned out to be 0.334; in the test with BAM7 + Pictilisib (first compound 50 µM), 0.264; in the test with BAM7 + Foretinib (first compound 0.5 µM) it was 0.913; with BAM7 + Foretinib (first compound 5 µM), 0.833; with BAM7 + Foretinib (first compound 15.81 µM), 0.779; with BAM7 + Foretinib (first compound 50 µM) it was 1.02.

As to NCI-H596, the relative viability stood at 1.07 in test [1] (first compound 0.01 µM); 0.886 in test [1] (first compound 0.03162 µM); 0.862 in test [1] (first compound 0.1 µM); 0.951 in test [1] (first compound 0.3162 µM); 0.792 in test [1] (first compound 1 µM); 0.682 in test [2] (first compound 0.01 µM). Besides, the relative viability was 0.72 in test [2] (first compound 0.1 µM); 0.697 in test [2] (first compound 0.3162 µM); 0.871 in test [2] (first compound 1 µM); 0.372 in the test with BAM7 + Pictilisib (first compound 0.5 µM); 0.455 in the test with BAM7 + Pictilisib (first compound 5 µM); 0.399 in the test with BAM7 + Pictilisib (first compound 15.81 µM). The relative viability in the test with BAM7 + Pictilisib (first compound 50 µM) amounted to 0.35; in the test with BAM7 + Foretinib (first compound 0.5 µM) it was 0.874; in the test with BAM7 + Foretinib (first compound 5 µM), 0.883; with BAM7 + Foretinib (first compound 15.81 µM) it was 0.762; with BAM7 + Foretinib (first compound 50 µM), 0.951.

As for NCI-H23, the relative viability in test [1] (first compound 0.01 µM) was 0.398; in test [1] (first compound 0.03162 µM), 0.438; in test [1] (first compound 0.1 µM), 0.568; in test [1] (first compound 0.3162 µM), 0.384; in test [1] (first compound 1 µM) it was 0.432; in test [2] (first compound 0.01 µM) it was 0.294. Also, the relative viability in test [2] (first compound 0.03162 µM) was found to be 0.275; in test [2] (first compound 0.1 µM), 0.269; in test [2] (first compound 0.3162 µM), 0.309; in test [2] (first compound 1 µM), 0.313; with BAM7 + Pictilisib (first compound 0.5 µM) it was 0.55; with BAM7 + Pictilisib (first compound 5 µM), 0.52. Also, the relative viability with BAM7 + Pictilisib (first compound 15.81 µM) is 0.499; in the test with BAM7 + Pictilisib (first compound 50 µM), 0.542; with BAM7 + Foretinib (first compound 0.5 µM), 1.05; with BAM7 + Foretinib (first compound 5 µM) it was 1.03; in the test with BAM7 + Foretinib (first compound 15.81 µM) it was 0.928; with BAM7 + Foretinib (first compound 50 µM), 1.1.
